Source: US12251445B2, “Gamma-hydroxybutyrate delivering compounds and processes for making and using them” (Zevra Therapeutics, Inc., priority 2022, dated 2025)

Test: Pharmacokinetics of GHB in plasma after oral gavage of GHB delivering compounds in rats
Details: vehicle water, mean conjugate/mean comparator
[1] = molar equivalent of 100 mg/kg NaGHB
[2] = dose equivalent to 80 mg/kg NaGHB

Structure (SMILES) | % AUC0-4 hr vs study comparator sodium oxybate [1] [%] | % Cmax vs study comparator sodium oxybate [1] [%] | % AUC0-4 hr vs study comparator sodium oxybate [2] [%] | % Cmax vs study comparator sodium oxybate [2] [%]
O=C1CCCO1 [GBL] | 27 | 70 | – | –
CCOC(=O)OCCCC(=O)O [O-(ethoxycarbonyl)-GHB] | – | – | 54 | 51
